Measured values from paper PMC4049535 (Nature communications, 2013).

How the values were obtained:
Antigen 85C (Ag85C) [1] = biological target: T1, Antigen 85C (Ag85C) (Mycobacterium tuberculosis, UniProt P9WQN9); experiment: resorufin butyrate fluorometric assay dose-dependence; type: biochemical
Antigen 85C (Ag85C) [2] = biological target: T1, Antigen 85C (Ag85C); experiment: peptide mass fingerprinting of tryptic peptides; type: biochemical

T1 sequence (P9WQN9 46-340): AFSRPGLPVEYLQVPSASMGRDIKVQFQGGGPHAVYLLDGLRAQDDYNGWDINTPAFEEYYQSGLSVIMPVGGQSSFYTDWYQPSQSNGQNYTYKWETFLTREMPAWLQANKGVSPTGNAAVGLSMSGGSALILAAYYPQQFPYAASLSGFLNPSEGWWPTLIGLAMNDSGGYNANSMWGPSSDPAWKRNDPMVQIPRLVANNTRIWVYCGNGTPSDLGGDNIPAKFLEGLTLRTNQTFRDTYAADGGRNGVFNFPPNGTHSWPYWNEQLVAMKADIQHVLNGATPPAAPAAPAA

| Structure (SMILES) | Ki (Antigen 85C (Ag85C) [1]) | peptide mass fingerprinting of tryptic peptides (MALDI-MS); activity loss in res (Antigen 85C (Ag85C) [2]) |
| --- | --- | --- |
| O=c1c2ccccc2[se]n1-c1ccccc1 [EBS, ebselen] | 63 nM | – |
| NC(=O)CI [IAA, iodoacetamide] | – | 51.2 mM |
